Reference: US20220193072A1, “METHODS OF TREATING BREAST CANCER WITH TETRAHYDRONAPHTHALENE DERIVATIVES AS ESTROGEN RECEPTOR DEGRADER” (Arvinas Operations, Inc., priority 2020, published 2022)
Each block holds one compound with its values, some of them ahead of it.

What was measured:
[1] = system: tamoxifen-resistant MCF7 xenografts; test: Tamoxifen-resistant MCF7 orthotopic xenograft tumor growth inhibition; type: in vivo, Nu/Nu mice
Method: Species: Ovariectomized Nu/Nu female mice. Animal handling: Axial mammary fat pad implantation of tamoxifen-resistant tumor fragment (from E45 passage. SC per mouse. Tamoxifen pellet (5 mg, 60-day release) was implanted under the same anesthesia as tumor fragment (pellet—dorsal; tumor—ventral).
Dosing: Oral (gavage), once a day for 28 days (QD×28)
(§1) Sampling: Tumors were measured twice weekly. Terminal sacrifice was ˜18 hr after last dose; tumors were harvested, divided, and flash frozen. ERα levels were determined by immunoblotting (see Appendix 1 for details).

ERα = molecular target: T1, ERα (Homo sapiens, UniProt P03372); test: ERα levels in tamoxifen-resistant MCF7 xenografts (immunoblot); type: in vivo, Nu/Nu mice; details: tamoxifen-resistant MCF7, palbociclib alone 60 mg/kg
T1 construct: robustly degrades ER in ER-positive breast cancer cell lines; endogenous in cells; host or cells: MCF7, T47D (cell culture); MCF7 and tamoxifen-resistant MCF7 xenograft tumours in mice
T1 sequence (P03372 1-595): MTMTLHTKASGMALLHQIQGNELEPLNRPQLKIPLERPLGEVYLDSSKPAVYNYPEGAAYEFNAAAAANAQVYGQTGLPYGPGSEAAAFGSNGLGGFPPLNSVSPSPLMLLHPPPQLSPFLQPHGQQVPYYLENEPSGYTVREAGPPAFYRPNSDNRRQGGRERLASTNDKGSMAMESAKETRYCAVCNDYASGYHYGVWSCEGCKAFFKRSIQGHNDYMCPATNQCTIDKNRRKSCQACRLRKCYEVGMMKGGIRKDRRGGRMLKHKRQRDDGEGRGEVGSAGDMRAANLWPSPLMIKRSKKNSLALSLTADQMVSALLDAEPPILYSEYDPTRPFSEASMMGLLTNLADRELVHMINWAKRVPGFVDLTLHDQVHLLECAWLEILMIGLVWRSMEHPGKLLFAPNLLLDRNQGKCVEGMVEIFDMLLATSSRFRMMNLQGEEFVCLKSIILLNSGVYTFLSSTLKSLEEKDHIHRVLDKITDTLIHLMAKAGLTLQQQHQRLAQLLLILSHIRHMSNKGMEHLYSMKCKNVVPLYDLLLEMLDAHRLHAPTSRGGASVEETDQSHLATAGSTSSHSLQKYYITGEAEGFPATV
Method: At study termination, the tumors were removed from the mice, and ERα levels were determined by immunoblotting the tumor homogenates. […] ERα levels from the various compound arms were compared to vehicle-treated animals by analyzing the tumor lysates on separate immunoblots (graphs in FIG. 10, FIG. 11, and FIG. 12 depict data from individual immunoblots) and the average ERα levels with standard deviation is shown.
as §1
Flash frozen tumors were removed from −80° C. storage and placed on dry ice. RIPA lysis buffer and Halt protease inhibitors were used at 400 μl per tumor sample. A steel ball (5 mm) was placed in each sample for tissue disruption. Samples were lysed with TissueLyzer at 24 Hz for 4 minutes. The homogenization was stopped half way through the process and the block flipped over for the duration of the process. […] Lysates were then measured for total protein concentration by BCA (per manufacturer's protocol). […]
Protein was transferred from gels to nitrocellulose with Bio-Rad Turbo on default setting. […] The blots were cut so that beta-actin and ERα can be detected from the same lane/sample. […]

MCF7 cells [2] = test: Live-cell imaging growth studies and EC50 for growth inhibition, MCF7; type: cell-based; details: Homo sapiens, read-out: Approximate Half-maximal Effective Concentration (EC50) for growth inhibition
Method: (§2) MCF7, T47D, T47D ESR1 Y537S or T47D ESR1 D538G cells were seeded at 2×10^5 density per well in 6-well tissue culture-treated plates in DMEM/F12/10% FBS (2 mL total volume). […] The plate was then placed in the Incucyte® S3 Live-Cell Analysis System and images were acquired every 4 hours for a total of 5 days (120 hours). Data were analyzed using the Incucyte® Software v2020C which quantified cell surface area coverage as confluence values. Relative growth was calculated for all timepoints for all growth conditions relative to the confluence value observed for the control at 120 hours. Graphing and statistical analyses were performed using Graphpad Prism (GraphPad Software).

MCF7 cells [3] = test: Luminescence-based MCF7 cell proliferation assay, dose-response matrix; details: 5 days (120 hours)
Method: MCF7 cells were seeded at a density of 2×10^4 cells in 200 μL of media per well in 2 technical replicate, 96-well black, clear-bottom plates and incubated overnight at 37° C. in a 5% CO2 incubator. […] DMSO was used as the vehicle control. The plates were then incubated for 5 days at 37° C. in a 5% CO2 incubator.
The plates were equilibrated to room temperature for approximately 30 minutes. 50 μL of Cell-Titer Glo (Promega) was added to all wells of the plates, covered with aluminum foil and shaken gently by hand for less than 1 minute. The plates were then incubated for 10 minutes at room temperature. Luminescence was recorded using Envision Multi Label Reader. To assess cell viability, luminescence values for drug-treated wells were normalized to average luminescence of vehicle (DMSO) wells to obtain percent viability relative to control cells. The data were analyzed with the Combenefit software.

T47D cells = test: Live-cell imaging growth studies and EC50 for growth inhibition, T47D; type: cell-based; details: Homo sapiens, read-out: Approximate Half-maximal Effective Concentration (EC50) for growth inhibition
Method: as §2

MCF7 xenograft [4] = test: MCF7 orthotopic xenograft, combination with PI3K inhibitor alpelisib; type: in vivo, NOD/SCID mice
Method: (§3) NOD/SCID female mice (Charles River, 6-7 weeks old upon arrival) were implanted with 17b-estradiol 0.72 mg 90-day pellets. The next day, each mouse was implanted with 5×10^6 MCF7 cells/100 mL in the axial mammary fat pad. Compound administration was initiated once the tumors reached 175-200 mm^3. Diet was supplemented with peanut butter to help maintain body weights. Dosing holidays occurred on days 6, 7, 8 and 9 due to body weight loss in some animals in study arms 3 and 4. […] (FIG. 31 and Table 15).
Dosing holidays occurred on days 6, 7, 8 and 9. Error bars represent standard deviation.
(§4) The ratio of Tween 80 to PEG-400 is 0.02 g Tween 80 to 1 ml PEG-400. PEG-400 is added to a pre-aliquoted volume of Tween 80. • For alpelisib: 1% carboxymethylcellulose (CMC), 0.5% Tween 80/DI water (‘CMC/Tween’) Sampling: tumors were measured twice weekly. Terminal sacrifice was ˜18 hr after last dose. Tumor volume calculation: Tumor Volume=(width×width×length)/2, where all measurements are in mm and the tumor volume is in mm^3. Tumor Growth Inhibition (TGI) calculation: TGI (%)

T47D ESR1 Y537S cells = test: Live-cell imaging growth studies and EC50 for growth inhibition, T47D ESR1 Y537S; type: cell-based; details: Homo sapiens, read-out: Approximate Half-maximal Effective Concentration (EC50) for growth inhibition
Method: as §2

T47D ESR1 D538G cells = test: Live-cell imaging growth studies and EC50 for growth inhibition, T47D ESR1 D538G; type: cell-based; details: Homo sapiens; T47D ESR1 D537G (so in the source); read-out: Approximate Half-maximal Effective Concentration (EC50) for growth inhibition
Method: as §2

MCF7 xenograft [5] = test: MCF7 orthotopic xenograft, combination with mTOR inhibitor everolimus; type: in vivo, NOD/SCID mice
Method: as §3, with “[…] per” for “mL”, “weights.” for “weights. Dosing holidays occurred on days 6, 7, 8 and 9 due to body weight loss in some animals in study arms 3 and 4.”, “28” for “31”, “13).” for “15).”
Error bars represent standard deviation.
as §4, with “everolimus: 10% DMSO, 90% (2%” for “alpelisib: 1% carboxymethylcellulose (CMC), 0.5%”, “80, PEG 400) (DMSO/PEG/Tween)” for “80/DI water (‘CMC/Tween’)”

[6] = palbociclib 60 mg/kg oral QD x 28
[7] = alpelisib 25 mg/kg oral QD x 19
[8] = everolimus 2.5 mg/kg oral QD x 26

Compound: CC(=O)c1c(C)c2cnc(Nc3ccc(N4CCNCC4)cn3)nc2n(C2CCCC2)c1=O [Palbociclib, 6-acetyl-8-cyclopentyl-5-methyl-2-{[5-(piperazin-1-yl)pyridin-2-yl]amino}pyrido[2,3-d]pyrimidin-7(8H)-one, reference compound]
Day 28 Tumor volume (mean ± SD) [1, 6]: 222 ± 139 mm^3
TGI (% vehicle) [1, 6]: 91 % vehicle
tumor growth inhibition (TGI) ([1]; tamoxifen-resistant MCF7, palbociclib 60 mg/kg/day oral, 28 days): 91%
effect on tumor ERα levels (ERα): did not reduce

Compound: Cc1nc(NC(=O)N2CCC[C@H]2C(N)=O)sc1-c1ccnc(C(C)(C)C(F)(F)F)c1 [Alpelisib, reference compound]
MCF7 cell proliferation, single agent (MCF7 cells [3]): dose-dependent decrease
EC50 (MCF7 cells [2]): 100 nM
EC50 (T47D cells): 100 nM
Day 19 Tumor Volume (mean ± SD) (MCF7 xenograft [4]; [7]): 281 ± 37 mm^3
TGI (% vehicle) (MCF7 xenograft [4]; [7]): 74 % vehicle
tumor growth inhibition (TGI) (MCF7 xenograft [4]; alpelisib 25 mg/kg oral once daily, 19 days, dosing holidays days 6-9): 74%

Compound: CO[C@H]1C[C@@H]2CC[C@@H](C)[C@@](O)(O2)C(=O)C(=O)N2CCCC[C@H]2C(=O)O[C@H]([C@H](C)C[C@@H]2CC[C@@H](OCCO)[C@H](OC)C2)CC(=O)[C@H](C)/C=C(\C)[C@@H](O)[C@@H](OC)C(=O)[C@H](C)C[C@H](C)/C=C/C=C/C=C/1C [Everolimus, reference compound]
MCF7 cell proliferation, single agent (MCF7 cells [3]): dose-dependent decrease
EC50 (MCF7 cells [2]): 10 nM
EC50 (T47D cells): 100 nM
EC50 (T47D ESR1 Y537S cells): 10 nM
EC50 (T47D ESR1 D538G cells): 10 nM
Day 26 Tumor Volume (mean ± SD) (MCF7 xenograft [5]; [8]): 252 ± 50 mm^3
TGI (% vehicle) (MCF7 xenograft [5]; [8]): 89 % vehicle
tumor growth inhibition (TGI) (MCF7 xenograft [5]; everolimus 2.5 mg/kg oral once daily, 26 days): 89%

The next lines start with results.

EC50 (MCF7 cells [2]): 10000 nM
Compound: CC1(C)CCC(CN2CCN(c3ccc(C(=O)NS(=O)(=O)c4ccc(NCC5CCOCC5)c([N+](=O)[O-])c4)c(Oc4cnc5[nH]ccc5c4)c3)CC2)=C(c2ccc(Cl)cc2)C1 [Venetoclax]

EC50 (MCF7 cells [2]): 40 nM
Compound: CCN1CCN(Cc2ccc(Nc3ncc(F)c(-c4cc(F)c5nc(C)n(C(C)C)c5c4)n3)nc2)CC1 [Abemaciclib]

EC50 (MCF7 cells [2]): 40 nM
EC50 (T47D cells): 30 nM
Compound: C[C@H](Nc1ccc2c(c1)OCCn1cc(N3C(=O)OC[C@H]3C(F)F)nc1-2)C(N)=O [GDC-0077]
MCF7 cell proliferation, single agent (MCF7 cells [3]): dose-dependent decrease
